These results are taken from article PMC9236245, “Glycyrrhiza uralensis promote the metabolism of toxic components of Aconitum carmichaeli by CYP3A and alleviate the development of chronic heart failure” (PLoS ONE, 2022).

Values joined by “and” are separate entries in the source; they are usually repeats but may differ in a detail not shown here. Equal values may be shown once.

The nature of data set [1]: Metabolic stability (t1/2, CLint) of AC, MA and HA in RLMs of pretreated rats. Particulars: for microsomal CLint at 25 µM / half-life at 25 µM: SD, rat, microsomes.
Data set [2] is described as follows: Metabolism of AC, MA and HA in rat liver microsomes by HPLC. It is filed as in vitro ADME. The following applies: NADPH. The protocol:
Agilent C18 column (4.60 mm × 150 mm, 5μm), mobile phase A was 20 mmol / L ammonium acetate and 0.1% formic acid aqueous solution, mobile phase B was methanol, isocratic elution, A: B = 60:40, flow rate was 1 ml / min, detection wavelength was 240 nm, column temperature was 30°C, injection volume was 20 μL.
(§1) 1 mg / ML microsome 100 μL, PBS 75 μL and aconitine alkaloids 5 μL (AC, MA and HA: 1 mmol / L) were added. 20 μL NADPH (10 mmol / L) was added to start the reactionand, AC and HA were incubated for 90 min, MA were incubated for 120 min. The reaction was terminated by adding 200 μL glacial acetonitrile, 12 000 r / min at 4°C for 10 min, and 20 μL supernatant was used for HPLC.
A general note: Liver microsomes are vesicles of endoplasmic reticulum, rich in cytochrome P450 enzymes.

A short description of data set [3]: Plasma concentration of AC, MA and HA in rats by LC-MS/MS. Further details: Plasma concentration: unit not given here. It counts as in vivo, rat. Particulars: for plasma concentration with compatibility of Glycyrrhizae and Aconitum vs Aconitum alone: 2 mL/kg by gavage; for Plasma concentration: single animals. As to the method: 12 SD rats were randomly divided into Aconitum and Glycyrrhizae combind with Aconitum group, 6 rats in each group, 2 mL / kg was given by gavage respectively.

Data set [4] concerns CYP450. Briefly: Effect of CYP450 inhibitors on metabolism of AC, MA and HA in rat liver microsomes. It is filed as in vitro ADME. The following applies: RLMs. The protocol:
as §1
Added microsome 100 μL, PBS 75 μL, aconitine alkaloids 5 μL, inhibitors (furatheophylline: 0.2 mmol / L, sulfabendazole: 0.4 mmol / L, quinidine: 0.1 mmol / L, ketoconazole: 0.04 mmol / L) 10 μL. The operation of HPLC was as above. The effect of CYP450 inhibitors on the metabolism of Aconitum alkaloids was calculated. The formula is as follows:
% inhibition = Peak area of X after adding inhibitor / Peak area of X before adding inhibitor × 100%, where X is metabolites of AC, MA and HA.

Setting [5] is: RLMs of rats pretreated with Glycyrrhizae 0.33 g/kg.
Setting [6] is: RLMs of rats pretreated with Glycyrrhizae 1 g/kg.
[7] abbreviates: RLMs of rats pretreated with Glycyrrhizae 3 g/kg.
Where [8] appears, read: RLMs of rats pretreated with Phenobarbital 0.08 g/kg.
[9] abbreviates: Aconitum 2 mL/kg gavage, 10 min.
Setting [10] is: Aconitum 2 mL/kg gavage, 20 min.
[11] abbreviates: Aconitum 2 mL/kg gavage, 30 min.
The mark [12] stands for this setting: Aconitum 2 mL/kg gavage, 45 min.
[13] abbreviates: Aconitum 2 mL/kg gavage, 60 min.
The mark [14] stands for this setting: Aconitum 2 mL/kg gavage, 90 min.
The mark [15] stands for this setting: Aconitum 2 mL/kg gavage, 120 min.
[16] abbreviates: Aconitum 2 mL/kg gavage, 240 min.
Where [17] appears, read: Aconitum 2 mL/kg gavage, 360 min.
[18] abbreviates: Aconitum 2 mL/kg gavage, 480 min.
Setting [19] is: Glycyrrhizae + Aconitum 2 mL/kg gavage, 10 min.
Where [20] appears, read: Glycyrrhizae + Aconitum 2 mL/kg gavage, 20 min.
Setting [21] is: Glycyrrhizae + Aconitum 2 mL/kg gavage, 30 min.
The mark [22] stands for this setting: Glycyrrhizae + Aconitum 2 mL/kg gavage, 45 min.
Where [23] appears, read: Glycyrrhizae + Aconitum 2 mL/kg gavage, 60 min.
[24] abbreviates: Glycyrrhizae + Aconitum 2 mL/kg gavage, 90 min.
The mark [25] stands for this setting: Glycyrrhizae + Aconitum 2 mL/kg gavage, 120 min.
The mark [26] stands for this setting: Glycyrrhizae + Aconitum 2 mL/kg gavage, 240 min.
[27] abbreviates: Glycyrrhizae + Aconitum 2 mL/kg gavage, 360 min.
Setting [28] is: Glycyrrhizae + Aconitum 2 mL/kg gavage, 480 min.
Where [29] appears, read: AC 90 min, ketoconazole stock 0.04 mmol/L.
Where [30] appears, read: MA 120 min, ketoconazole stock 0.04 mmol/L.

The term microsomal CLint denotes a measure of how fast metabolising enzymes remove a compound, apart from limits set by blood flow. As a reminder, the half-life is how long it takes for the measured level to halve. For the compound `CCN1C[C@]2(COC)[C@H](O)C[C@H](OC)[C@@]34[C@@H]5C[C@@]6(O)[C@H](OC(=O)c7ccccc7)[C@@H]5[C@@](OC(C)=O)([C@@H]([C@H](OC)[C@H]23)[C@@H]14)[C@@H](O)[C@@H]6OC` [AC, aconitine], the intrinsic metabolic clearance (microsomal CLint) at 25 µM in data set [1] (RLMs of Control rats) was 10.8 ± 0.4 µL/min/mg; in data set [1] (setting [5]), 14.7 ± 0.23 µL/min/mg; in data set [1] (setting [6]), 15.5 ± 0.46 µL/min/mg; in data set [1] (setting [7]) it was 11.6 ± 0.4 µL/min/mg; in data set [1] (setting [8]), 16.3 ± 0.61 µL/min/mg. In addition, the half-life at 25 µM in data set [1] (t1/2, RLMs of Control rats) turned out to be 4.28 ± 0.159 h; in data set [1] (t1/2, RLMs of rats pretreated with Glycyrrhizae 0.33 g/kg), 3.15 ± 0.05 h; in data set [1] (t1/2, RLMs of rats pretreated with Glycyrrhizae 1 g/kg), 2.99 ± 0.0877 h; in data set [1] (t1/2, RLMs of rats pretreated with Glycyrrhizae 3 g/kg), 3.99 ± 0.138 h; in data set [1] (t1/2, RLMs of rats pretreated with Phenobarbital 0.08 g/kg), 2.84 ± 0.108 h. Also, in data set [2], the “metabolites produced in RLMs” value is on record as “three metabolites (A1-A3)”. Moreover, in data set [3], the “plasma concentration with compatibility of Glycyrrhizae and Aconitum vs Aconitum alone” value is recorded as “significantly lower”. For the same compound, the Plasma concentration in data set [3] (setting [9]) is 0.0562 and 0.0808 and 0.0292 and 0.0385 and 0.0141; in data set [3] (setting [10]) it was 0.0945 and 0.121 and 0.0589 and 0.0443 and 0.0407; in data set [3] (setting [11]) it was 0.0925 and 0.117 and 0.0557 and 0.0722 and 0.05; in data set [3] (setting [12]), 0.118 and 0.156 and 0.082 and 0.0566 and 0.0273; in data set [3] (setting [13]) it was 0.13 and 0.176 and 0.0973 and 0.0545 and 0.0474; in data set [3] (setting [14]), 0.143 and 0.138 and 0.108 and 0.0529 and 0.0439. Besides, the Plasma concentration in data set [3] (setting [15]) is 0.0793 and 0.127 and 0.0603 and 0.0355 and 0.024; in data set [3] (setting [16]), 0.0629 and 0.0516 and 0.0251 and 0.0305 and 0.0211; in data set [3] (setting [17]) it was 0.0287 and 0.0253 and 0.00749 and 0.0187 and 0.0173; in data set [3] (setting [18]), 0.0164 and 0.00823 and 0.0095 and 0.00724 and 0.00602; in data set [3] (setting [19]), 0.0175 and 0.0293 and 0.0191 and 0.0122 and 0.0147; in data set [3] (setting [20]), 0.0115 and 0.059 and 0.0448 and 0.017 and 0.0239. Also, the Plasma concentration in data set [3] (setting [21]) is 0.0218 and 0.0596 and 0.0401 and 0.018 and 0.0426; in data set [3] (setting [22]), 0.0355 and 0.0389 and 0.0637 and 0.0227 and 0.0397; in data set [3] (setting [23]) it was 0.0309 and 0.0518 and 0.0337 and 0.0343 and 0.0443; in data set [3] (setting [24]), 0.018 and 0.039 and 0.0371 and 0.0238 and 0.0457; in data set [3] (setting [25]), 0.0163 and 0.0373 and 0.0236 and 0.0131 and 0.0446; in data set [3] (setting [26]), 0.00197 and 0.0253 and 0.00871 and 0.00772 and 0.0267. In addition, the Plasma concentration in data set [3] (setting [27]) is 0.00413 and 0.00482 and 0 and 0.00225 and 0.0062; in data set [3] (setting [28]), 0 (4×) and 0.00207.

For the compound `COC[C@]12CN(C)[C@@H]3[C@@H]4[C@H](OC)[C@H]1[C@@]3([C@@H](OC)C[C@H]2O)[C@@H]1C[C@@]2(O)[C@H](OC(=O)c3ccccc3)[C@@H]1[C@]4(OC(C)=O)[C@@H](O)[C@@H]2OC` [MA, mesaconitine], the CLint turned out to be 16.00±0.40 μL/min/mg protein in data set [1] (RLMs of Control rats); 17.73±0.23 μL/min/mg protein in data set [1] (setting [5]); 18.80±0.04 μL/min/mg protein in data set [1] (setting [6]); 17.87±0.83 μL/min/mg protein in data set [1] (setting [7]); 19.60±0.40 μL/min/mg protein in data set [1] (setting [8]). The t1/2 in data set [1] (RLMs of Control rats) is 2.8887 ± 0.0722 h; in data set [1] (setting [5]) it was 2.6055 ± 0.0337 h; in data set [1] (setting [6]) it was 2.4582 ± 0.0522 h; in data set [1] (setting [7]), 2.5895 ± 0.118 h; in data set [1] (setting [8]), 2.358 ± 0.048 h. The “plasma concentration with compatibility of Glycyrrhizae and Aconitum vs Aconitum alone” value in data set [3] is “significantly lower”. Moreover, the Plasma concentration was 0.104 and 0.259 and 0.0838 and 0.0908 and 0.0264 in data set [3] (setting [9]); 0.112 and 0.306 and 0.0799 and 0.129 and 0.0672 in data set [3] (setting [10]); 0.141 (2×) and 0.315 and 0.127 and 0.051 in data set [3] (setting [11]); 0.131 and 0.358 and 0.138 and 0.0993 and 0.054 in data set [3] (setting [12]); 0.209 and 0.452 and 0.123 and 0.0971 and 0.0527 in data set [3] (setting [13]); 0.212 and 0.258 and 0.0872 and 0.0822 and 0.0482 in data set [3] (setting [14]). The Plasma concentration is 0.151 and 0.279 and 0.0558 and 0.0592 and 0.0337 in data set [3] (setting [15]); 0.067 and 0.0621 and 0.0139 and 0.0294 and 0.00782 in data set [3] (setting [16]); 0.0249 and 0.0364 and 0 (2×) and 0.0208 in data set [3] (setting [17]); 0.00513 and 0 (4×) in data set [3] (setting [18]); 0.0924 and 0.061 and 0.0433 and 0.0157 and 0.04 in data set [3] (setting [19]); 0.0183 and 0.062 and 0.0517 and 0.0185 and 0.0482 in data set [3] (setting [20]). In addition, the Plasma concentration was 0.0382 and 0.0796 and 0.0589 and 0.0258 and 0.0568 in data set [3] (setting [21]); 0.0446 and 0.0702 and 0.0601 and 0.0125 and 0.0651 in data set [3] (setting [22]); 0.0304 and 0.0692 and 0.0418 and 0.0207 and 0.0668 in data set [3] (setting [23]); 0.038 and 0.0469 and 0.0364 and 0.0228 and 0.0572 in data set [3] (setting [24]); 0.0276 and 0.0368 and 0.0358 and 0.0326 and 0.0683 in data set [3] (setting [25]); 0.00794 and 0.0109 and 0.0106 and 0.00771 and 0.0278 in data set [3] (setting [26]). For the same compound, the Plasma concentration in data set [3] (setting [27]) was 0.00417 and 0.00296 and 0 and 0.0025 and 0.0106; in data set [3] (setting [28]) it was 0.

For the compound `Cc1nc2c([nH]1)c(=O)n(C)c(=O)n2Cc1ccco1` [furaphylline], the “effect on the metabolism of AC, MA and HA” value in data set [4] (stock 0.2 mmol/L) is listed as “no significant effect”.

For the compound `CC(=O)N1CCN(c2ccc(OCC3COC(Cn4ccnc4)(c4ccc(Cl)cc4Cl)O3)cc2)CC1` (stereo not drawn) [ketoconazole], in data set [4] (setting [29]), the “production of AC metabolite A1, difference vs control” value is recorded as -0.2416 ± 0.0644; the “production of AC metabolite A2, difference vs control” value is listed as -0.4708 ± 0.02905; the “production of AC metabolite A3, difference vs control” value is reported as -0.4643 ± 0.06743. The “production of HA metabolite H2, difference vs control” value in data set [4] (HA 90 min) is listed as -0.4161 ± 0.01634. The “production of HA metabolite H1, difference vs control” value in data set [4] (HA 90 min, ketoconazole stock 0.04 mmol/L) is reported as -0.4482 ± 0.05543. In data set [4] (setting [30]), the “production of MA metabolite M1, difference vs control” value is on record as -0.4085 ± 0.07279; the “production of MA metabolite M2, difference vs control” value was -0.3312 ± 0.06126; the “production of MA metabolite M3, difference vs control” value is -0.3905 ± 0.01824.
